Patent US20070031328A1, “Radiolabeled-pegylation of ligands for use as imaging agents” (priority 2005, published 2007)
Blank lines part the entries; values can stand above or below the compound they belong to.

What was measured:
[1] = molecular target: T1, Ab aggregates of AD brain homogenates (Homo sapiens, UniProt P05067); assay: Inhibition of [125I]IMPY binding to Aβ aggregates of AD brain homogenates; parameters: species or system human (AD patients)
T1 construct: to Ab aggregates of AD brain homogenates; from tissue; host or cells: post-mortem grey matter of AD patients, homogenised in PBS
T1 sequence (P05067 672-713 limits assumed): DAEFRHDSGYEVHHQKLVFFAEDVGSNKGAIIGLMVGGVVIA
Description: Postmortem brain tissues were obtained from AD patients at autopsy, and neuropathological diagnosis was confirmed by current criteria (NIA-Reagan Institute Consensus Group, 1997). Homogenates were then prepared from dissected gray matters from AD patients in phosphate buffered saline (PBS, pH 7.4) at the concentration of approximately 100 mg wet tissue/ml (motor-driven glass homogenizer with setting of 6 for 30 sec).
(§1) Binding assays were carried out in 12×75 mm borosilicate glass tubes. […] The mixture was incubated at 37° C. for 2 hr and the bound and the free radioactivity were separated by vacuum filtration through Whatman GF/B filters using a Brandel M-24R cell harvester followed by 2×3 ml washes of PBS at room temperature. Filters containing the bound ^125I ligand were assayed for radioactivity content in a gamma counter (Packard 5000) with 70% counting efficiency.
as §1, with “efficiency. […] The results of inhibition experiments were subjected to nonlinear regression analysis using EBDA by which Ki values were calculated.” for “efficiency.”

[2] = Biodistribution studies in normal mice; assay type: in vivo, male ICR mice; conditions: tail vein injection, avg of 3 mice ± SD
Description: While under isoflurane anesthesia, 0.15 mL of a saline solution containing the F-18 tracers (10-20 uCi) was injected directly into the lateral tail vein of male ICR mice. The mice (n=3 for each time point) were sacrificed by cervical dislocation at 2, 30, 60 and 120 minutes post-injection. The organs of interest were removed, weighed and assayed for radioactivity content with an automatic gamma counter. The percentage dose per organ was calculated by a comparison of the tissue counts to suitably diluted aliquots of the injected material. Total activities of blood and bone were calculated under the assumption that they were 7% and 14% of the body weight, respectively. The % dose/g of samples was calculated by comparing the sample counts with the count of the diluted initial dose.

SMILES: CN(C)c1ccc(C=Cc2nc3ccc(OCCF)cc3o2)cc1 [Compound 8a, 6-(2-fluoroethoxy)-[2-(4-dimethylaminophenyl)-vinyl]-benzooxazol]
Ki [1]: 12 ± 0.5 nM

SMILES: CN(C)c1ccc(C=Cc2nc3ccc(OCCOCCOCCOCCOCCOCCOCCOCCF)cc3o2)cc1 [Compound 8d, 6-(2-(2-(2-(2-(2-(2-(2-(2-fluoroethoxy)-ethoxy)-ethoxy)-ethoxy)-ethoxy)-ethoxy)-ethoxy)-ethoxy)-[2-(4-dimethylaminophenyl)-vinyl]-benzooxazol]
Ki [1]: 6 ± 0.6 nM

SMILES: CNc1ccc(-c2nc3ccc(OCCOCCOCCOCCOCCOCCOCCOCCF)cc3s2)cc1 [Compound 5d, 2-[4′-(methylamino)phenyl]-6-[2-(2-{2-[2-(2-{2-[2-(2-fluoroethoxy)-ethoxy]ethoxy}ethoxy)ethoxy]ethoxy}ethoxy)ethoxy]benzothiazole]
Ki [1]: 9 ± 1.8 nM

SMILES: CN(C)c1ccc(-c2cn3cc(OCCF)ccc3n2)cc1 [Compound 12a, 6-(2-fluoroethoxy)-2-(4-dimethylamino-)phenyl-imidazo [1,2-a]pyridine]
Ki [1]: 16 ± 2 nM

The remaining lines, values ahead:

Blood biodistribution ([2]; 2 min): 3.54 ± 0.12 % dose/g
Blood biodistribution ([2]; 30 min): 2.52 ± 0.29 % dose/g
Blood biodistribution ([2]; 1 hr): 2.46 ± 0.29 % dose/g
Blood biodistribution ([2]; 2 hr): 1.54 ± 0.19 % dose/g
Bone biodistribution ([2]; 2 min): 1.68 ± 0.60 % dose/g
Bone biodistribution ([2]; 30 min): 1.20 ± 0.29 % dose/g
Bone biodistribution ([2]; 1 hr): 1.68 ± 0.17 % dose/g
Bone biodistribution ([2]; 2 hr): 2.31 ± 0.37 % dose/g
Brain biodistribution ([2]; 2 min): 2.57 ± 0.12 % dose/g
Brain biodistribution ([2]; 30 min): 1.69 ± 0.23 % dose/g
Brain biodistribution ([2]; 1 hr): 1.80 ± 0.25 % dose/g
Brain biodistribution ([2]; 2 hr): 1.29 ± 0.17 % dose/g
Heart biodistribution ([2]; 2 min): 9.37 ± 0.18 % dose/g
Heart biodistribution ([2]; 30 min): 2.11 ± 0.27 % dose/g
Heart biodistribution ([2]; 1 hr): 1.82 ± 0.28 % dose/g
Heart biodistribution ([2]; 2 hr): 1.19 ± 0.15 % dose/g
Kidney biodistribution ([2]; 2 min): 23.00 ± 0.89 % dose/g
Kidney biodistribution ([2]; 30 min): 5.01 ± 0.84 % dose/g
Kidney biodistribution ([2]; 1 hr): 3.50 ± 0.86 % dose/g
Kidney biodistribution ([2]; 2 hr): 1.27 ± 0.08 % dose/g
Liver biodistribution ([2]; 2 min): 12.43 ± 1.11 % dose/g
Liver biodistribution ([2]; 30 min): 3.94 ± 0.29 % dose/g
Liver biodistribution ([2]; 1 hr): 2.86 ± 0.38 % dose/g
Liver biodistribution ([2]; 2 hr): 1.67 ± 0.32 % dose/g
Lung biodistribution ([2]; 2 min): 4.68 ± 0.27 % dose/g
Lung biodistribution ([2]; 30 min): 2.41 ± 0.37 % dose/g
Lung biodistribution ([2]; 1 hr): 2.08 ± 0.32 % dose/g
Lung biodistribution ([2]; 2 hr): 1.24 ± 0.16 % dose/g
Muscle biodistribution ([2]; 2 min): 1.60 ± 0.98 % dose/g
Muscle biodistribution ([2]; 30 min): 1.87 ± 0.38 % dose/g
Muscle biodistribution ([2]; 1 hr): 1.52 ± 0.24 % dose/g
Muscle biodistribution ([2]; 2 hr): 0.93 ± 0.07 % dose/g
Skin biodistribution ([2]; 2 min): 0.95 ± 0.12 % dose/g
Skin biodistribution ([2]; 30 min): 2.14 ± 1.03 % dose/g
Skin biodistribution ([2]; 1 hr): 1.42 ± 0.14 % dose/g
Skin biodistribution ([2]; 2 hr): 0.91 ± 0.10 % dose/g
Spleen biodistribution ([2]; 2 min): 4.74 ± 0.23 % dose/g
Spleen biodistribution ([2]; 30 min): 2.05 ± 0.18 % dose/g
Spleen biodistribution ([2]; 1 hr): 1.87 ± 0.26 % dose/g
Spleen biodistribution ([2]; 2 hr): 1.13 ± 0.16 % dose/g
SMILES: CNc1ccc(-c2nc3ccc(OCCOCCOCCOCCOCCOCC[18F])cc3s2)cc1 [[^18F]5c]

Blood biodistribution ([2]; 2 min): 6.29 ± 1.19 % dose/g
Blood biodistribution ([2]; 30 min): 3.41 ± 0.07 % dose/g
Blood biodistribution ([2]; 1 hr): 3.91 ± 0.23 % dose/g
Blood biodistribution ([2]; 2 hr): 4.04 ± 0.45 % dose/g
Bone biodistribution ([2]; 2 min): 2.13 ± 0.16 % dose/g
Bone biodistribution ([2]; 30 min): 1.48 ± 0.03 % dose/g
Bone biodistribution ([2]; 1 hr): 1.82 ± 0.04 % dose/g
Bone biodistribution ([2]; 2 hr): 2.41 ± 0.28 % dose/g
Brain biodistribution ([2]; 2 min): 5.53 ± 0.56 % dose/g
Brain biodistribution ([2]; 30 min): 2.33 ± 0.15 % dose/g
Brain biodistribution ([2]; 1 hr): 2.18 ± 0.09 % dose/g
Brain biodistribution ([2]; 2 hr): 1.96 ± 0.13 % dose/g
Heart biodistribution ([2]; 2 min): 6.26 ± 1.12 % dose/g
Heart biodistribution ([2]; 30 min): 3.22 ± 0.33 % dose/g
Heart biodistribution ([2]; 1 hr): 3.06 ± 0.15 % dose/g
Heart biodistribution ([2]; 2 hr): 2.50 ± 0.09 % dose/g
Kidney biodistribution ([2]; 2 min): 9.02 ± 0.77 % dose/g
Kidney biodistribution ([2]; 30 min): 5.27 ± 0.77 % dose/g
Kidney biodistribution ([2]; 1 hr): 3.97 ± 0.25 % dose/g
Kidney biodistribution ([2]; 2 hr): 2.97 ± 0.07 % dose/g
Liver biodistribution ([2]; 2 min): 21.84 ± 1.56 % dose/g
Liver biodistribution ([2]; 30 min): 13.75 ± 1.88 % dose/g
Liver biodistribution ([2]; 1 hr): 11.22 ± 0.82 % dose/g
Liver biodistribution ([2]; 2 hr): 9.13 ± 1.11 % dose/g
Lung biodistribution ([2]; 2 min): 7.35 ± 1.50 % dose/g
Lung biodistribution ([2]; 30 min): 3.94 ± 0.29 % dose/g
Lung biodistribution ([2]; 1 hr): 3.63 ± 0.25 % dose/g
Lung biodistribution ([2]; 2 hr): 3.24 ± 0.10 % dose/g
Muscle biodistribution ([2]; 2 min): 1.40 ± 0.11 % dose/g
Muscle biodistribution ([2]; 30 min): 1.92 ± 0.34 % dose/g
Muscle biodistribution ([2]; 1 hr): 1.58 ± 0.13 % dose/g
Muscle biodistribution ([2]; 2 hr): 1.38 ± 0.11 % dose/g
Skin biodistribution ([2]; 2 min): 2.09 ± 0.22 % dose/g
Skin biodistribution ([2]; 30 min): 2.27 ± 0.17 % dose/g
Skin biodistribution ([2]; 1 hr): 1.92 ± 0.13 % dose/g
Skin biodistribution ([2]; 2 hr): 1.57 ± 0.06 % dose/g
Spleen biodistribution ([2]; 2 min): 5.24 ± 0.67 % dose/g
Spleen biodistribution ([2]; 30 min): 2.66 ± 0.14 % dose/g
Spleen biodistribution ([2]; 1 hr): 2.84 ± 0.13 % dose/g
Spleen biodistribution ([2]; 2 hr): 2.46 ± 0.05 % dose/g
SMILES: CNc1ccc(-c2nc3ccc(OCCOCCOCC[18F])cc3s2)cc1 [[^18F]5b]

Blood biodistribution ([2]; 2 min): 3.37 ± 0.46 % dose/g
Blood biodistribution ([2]; 30 min): 3.60 ± 0.13 % dose/g
Blood biodistribution ([2]; 1 hr): 4.55 ± 0.40 % dose/g
Blood biodistribution ([2]; 2 hr): 4.38 ± 0.14 % dose/g
Bone biodistribution ([2]; 2 min): 1.69 ± 0.21 % dose/g
Bone biodistribution ([2]; 30 min): 2.28 ± 0.20 % dose/g
Bone biodistribution ([2]; 1 hr): 3.17 ± 0.39 % dose/g
Bone biodistribution ([2]; 2 hr): 6.35 ± 1.32 % dose/g
Brain biodistribution ([2]; 2 min): 10.27 ± 1.30 % dose/g
Brain biodistribution ([2]; 30 min): 4.59 ± 0.47 % dose/g
Brain biodistribution ([2]; 1 hr): 3.94 ± 0.04 % dose/g
Brain biodistribution ([2]; 2 hr): 3.86 ± 0.35 % dose/g
Heart biodistribution ([2]; 2 min): 8.32 ± 0.37 % dose/g
Heart biodistribution ([2]; 30 min): 3.49 ± 0.27 % dose/g
Heart biodistribution ([2]; 1 hr): 3.81 ± 0.25 % dose/g
Heart biodistribution ([2]; 2 hr): 3.59 ± 0.03 % dose/g
Kidney biodistribution ([2]; 2 min): 13.02 ± 1.04 % dose/g
Kidney biodistribution ([2]; 30 min): 4.54 ± 0.62 % dose/g
Kidney biodistribution ([2]; 1 hr): 3.98 ± 0.24 % dose/g
Kidney biodistribution ([2]; 2 hr): 3.18 ± 0.16 % dose/g
Liver biodistribution ([2]; 2 min): 19.02 ± 1.06 % dose/g
Liver biodistribution ([2]; 30 min): 7.98 ± 0.60 % dose/g
Liver biodistribution ([2]; 1 hr): 6.35 ± 0.46 % dose/g
Liver biodistribution ([2]; 2 hr): 5.05 ± 0.43 % dose/g
Lung biodistribution ([2]; 2 min): 7.79 ± 0.34 % dose/g
Lung biodistribution ([2]; 30 min): 3.91 ± 0.28 % dose/g
Lung biodistribution ([2]; 1 hr): 3.84 ± 0.55 % dose/g
Lung biodistribution ([2]; 2 hr): 3.63 ± 0.15 % dose/g
Muscle biodistribution ([2]; 2 min): 0.82 ± 0.12 % dose/g
Muscle biodistribution ([2]; 30 min): 2.83 ± 0.22 % dose/g
Muscle biodistribution ([2]; 1 hr): 2.76 ± 0.17 % dose/g
Muscle biodistribution ([2]; 2 hr): 2.36 ± 0.11 % dose/g
Skin biodistribution ([2]; 2 min): 1.08 ± 0.22 % dose/g
Skin biodistribution ([2]; 30 min): 3.14 ± 0.22 % dose/g
Skin biodistribution ([2]; 1 hr): 3.15 ± 0.28 % dose/g
Skin biodistribution ([2]; 2 hr): 2.62 ± 0.16 % dose/g
Spleen biodistribution ([2]; 2 min): 6.92 ± 0.79 % dose/g
Spleen biodistribution ([2]; 30 min): 3.93 ± 0.29 % dose/g
Spleen biodistribution ([2]; 1 hr): 3.87 ± 0.61 % dose/g
Spleen biodistribution ([2]; 2 hr): 3.32 ± 0.16 % dose/g
SMILES: CNc1ccc(-c2nc3ccc(OCCOCC[18F])cc3s2)cc1 [[^18F]5a]
